Data reported in patent US20150284812A1 (priority 2012, published 2015).
Like-named read-outs stand apart in the source and are kept apart here.

Key:
[1] = tested on: gene expression control region of the human CYP3A4 gene (EGFP reporter)
Method: (§1) Forty-eight hours later (corresponding to Day 14 of differentiation culture), the total area fluorescence intensities of EGFP and DsRed were analyzed under a fluorescence microscope (FIG. 16).

[2] = tested on: gene expression control region of the human CYP3A7 gene (DsRed reporter)
Method: as §1

[3] = tested on: CYP3A7; assay: Expression of CYP3A7 upon cell damage, liver damage by a CYP-inducing drug in humanized CYP3A model mouse; assay type: in vivo; conditions: versus corn oil administration control group, hepatocyte regeneration after liver damage
From the text: The expression of CYP3A7 during the injury of hepatocytes was examined by a method of liver regeneration after partial hepatectomy performed on 70% living liver, using a humanized CYP3A model mouse into which human CYP3A4 and CYP3A7 have been incorporated, a method of damaging the liver of the same mouse as described above by administration of a CYP-inducing drug, and a method of transplanting frozen human hepatocytes into the liver injury model mouse. In the method of liver regeneration after the partial hepatectomy, mice that were fed after 70% of the liver had been excised by ligating it with a cord were produced. Thereafter, the mice were successively subjected to dissection from Days 1 to 5 to collect the liver from each mouse, and gene expression was then examined. In the method of damaging the liver by administration of a CYP-inducing drug, the liver was excised from each mouse belonging to a PCN administration group and a corn oil administration control group, and gene expression was then examined. In the method of transplanting frozen human hepatocytes into the living mouse, a part of the humanized mouse liver was obtained from PhenixBio, and gene expression was then examined.

[4] = tested on: HepaRG cells
[5] = tested on: CYP3A7-DsRed; assay: Liver injury test using CYP3A4+/7R MAC-introduced mice, observation under fluorescence microscope; assay type: in vivo, mouse; conditions: 8 weeks old mice; 5% carbon tetrachloride dissolved in DMSO; observed for 3 days
From the text: The CYP3A4+/7MAC-introduced mice produced in Example 5 strongly expressed DsRed for several weeks after the birth. […] In the CYP3A4+/7R MAC-introduced mice, EGFP functions as a marker showing introduction of MAC in the cells.

[6] = tested on: CYP3A7-DsRed; assay: Liver injury test using CYP3A4+/7R MAC-introduced mice, analysis by quantitative RT-PCR; assay type: in vivo, mouse; conditions: adult mice; 5% carbon tetrachloride; Days 1, 2 and 3 versus non-administered (Day 0)
Method: Using RNAs extracted from the livers of the CYP3A4+/7R MAC-introduced mice to which 5% carbon tetrachloride had been administered in Test Example 11 and non-administered (Day 0) mice, an increase in the expression of DsRed on Days 1, 2 and 3 after the administration was analyzed by quantitative RT-PCR (FIG. 19).

SMILES | expression of EGFP (total area fluorescence intensity) [1] | fluorescence intensity of DsRed ([2]; HepaRG clone C3, drug in 1% DMSO, 48 hours, DMSO control group = 1) | expression of CYP3A7 in liver [3] | cellular damage to HepaRG cells ([4]; HepaRG cells) | fluorescence intensity of DsRed in the liver [5] | expression of DsRed in the liver (quantitative RT-PCR) [6] | fluorescence intensity of DsRed [2] | cellular damage to HepaRG cells [4]
CC(=O)[C@H]1[C@H](C#N)C[C@H]2[C@@H]3CC=C4C[C@@H](O)CC[C@]4(C)[C@H]3CC[C@@]21C [PCN, pregnenolone 16α-carbonitrile] | non-inducibility | increase | transiently increased | high cellular damage | – | – | – | –
ClC(Cl)(Cl)Cl [carbon tetrachloride] | – | – | – | – | increase | increases | – | –
Clc1ccccc1C(c1ccccc1)(c1ccccc1)n1ccnc1 [clotrimazole] | induced | – | – | – | – | – | increase | high cellular damage
